Reference: patent US20240228458A1, “PYRIMIDINE DERIVATIVE HAVING PROTEIN KINASE INHIBITORY ACTIVITY, AND THERAPEUTIC PHARMACEUTICAL COMPOSITION COMPRISING SAME” (THERAPEX CO., LTD., priority 2021, published 2024)

Tests used:
Assay type in all cases: cell-based
[1] = test system: Ba/F3 cells expressing EGFR-wt; experiment: Growth inhibition (GI50) of Ba/F3 cells expressing EGFR-wt, Celltiter glo; settings: Mus musculus, BaF3, 72 h
Outline: (§1)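 Ba/F3 cells carrying the given EGFR variant were seeded at 100,000 cells/ml and, 4 h later, treated with 10-point, 4-fold serial dilutions prepared from a 2 mM stock (0.5% DMSO final). After 72 h at 37 °C and 5% CO2, viable cells were quantified by CellTiter-Glo luminescence to derive GI50.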

[2] = test system: Ba/F3 cells expressing del19/T790M/C797S (EGFR-DTC); experiment: Growth inhibition (GI50) of Ba/F3 cells expressing del19/T790M/C797S (EGFR-DTC), Celltiter glo; settings: Mus musculus, BaF3, 72 h
Outline: as §1

[3] = test system: Ba/F3 cells expressing L858R/T790M/C797S (EGFR-LTC); experiment: Growth inhibition (GI50) of Ba/F3 cells expressing L858R/T790M/C797S (EGFR-LTC), Celltiter glo; settings: Mus musculus, BaF3, 72 h
Outline: as §1

[4] = test system: Ba/F3 cells expressing del19/T790M (EGFR-DT); experiment: Growth inhibition (GI50) of Ba/F3 cells expressing del19/T790M (EGFR-DT), Celltiter glo; settings: Mus musculus, BaF3, 72 h
Protocol: (§2) In this experimental example, a determination was made as to whether the compounds prepared in Examples 1-283 have the ability to inhibit the growth of Ba/F3 cells expressing EGFR-wt, del19/T790M/C797S (EGFR-DTC), L858R/T790M/C797S (EGFR-LTC), del19/T790M (EGFR-DT), and L858R/T790M (EGFR-LT) variants.
(§3) The parental Ba/F3 cell line is a population of cells that are not introduced with EGFR variants. Specifically, 100 μl of a cell line expressing each variant was plated in a 96-well plate at a density of 100,000 cells/ml. 10-point, 4-fold serial dilutions of each compound were prepared, starting at 2 mM. After 4 h, 0.5 μl of the compound (0.5% DMSO) was added, followed by incubation at 37° C. and 5% CO2 for 72 h. After incubation, the number of viable cells was measured using a Celltiter glo assay kit (Promega) and the GI50 of the compound was determined. The term “GI50” refers to the molar concentration (μM) of the compound required for 50% growth inhibition of cells.

[5] = test system: Ba/F3 cells expressing L858R/T790M (EGFR-LT); experiment: Growth inhibition (GI50) of Ba/F3 cells expressing L858R/T790M (EGFR-LT), Celltiter glo; settings: Mus musculus, BaF3, 72 h
Protocol: as §2, §3

[6] = test system: parental Ba/F3 cell line; experiment: Growth inhibition (GI50) of the parental Ba/F3 cell line (not introduced with EGFR variants), Celltiter glo; settings: Mus musculus, BaF3, 72 h, parental Ba/F3 cells
Outline: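 Parental Ba/F3 cells (100,000 cells/ml) were treated with 10-point, 4-fold compound dilutions (0.5% DMSO; top stock 2 mM) for 72 h at 37 °C, 5% CO2. Viability was read by CellTiter-Glo; GI50 is the concentration (μM) giving 50% growth inhibition.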

GI50 [1]	GI50 [2]	GI50 [3]	GI50 [4]	GI50 [5]	SMILES	GI50 [6]
0.1 to 0.5 µM	0.001 to 0.025 µM	0.001 to 0.025 µM	0.025 to 0.1 µM	0.001 to 0.025 µM	COc1cc(N2CCC(N3CCCN(C)CC3)CC2)c(C)cc1Nc1ncc(Br)c(Nc2cc(Cl)ccc2NS(C)(=O)=O)n1 [Example 89]	0.5 to 2 µM
0.1 to 0.5 µM	0.001 to 0.025 µM	0.001 to 0.025 µM	0.001 to 0.025 µM	0.001 to 0.025 µM	COc1cc(N2CCC(N3CCCC(N(C)C)C3)CC2)c(C)cc1Nc1ncc(Br)c(Nc2cc(Cl)ccc2NS(C)(=O)=O)n1 (stereo not drawn) [Example 90, N-(2-((5-Bromo-2-((4-(3-(dimethylamino)-[1,4′-bipiperidin]-1′-yl)-2-methoxy-5-methylphenyl)amino)pyrimidin-4-yl)amino)-4-chlorophenyl)methanesulfonamide]	0.5 to 2 µM
0.025 to 0.1 µM	0.001 to 0.025 µM	0.001 to 0.025 µM	0.001 to 0.025 µM	0.001 to 0.025 µM	COc1cc(N2CCC(N3CCNCC3)CC2)c(C)cc1Nc1ncc(Br)c(Nc2cc(Cl)ccc2NS(C)(=O)=O)n1 [Example 94, N-(2-((5-bromo-2-((2-methoxy-5-methyl-4-(4-(piperazin-1-yl)piperidin-1-yl)phenyl)amino)pyrimidin-4-yl)amino)-4-chlorophenyl)methanesulfonamide]	0.5 to 2 µM
0.1 to 0.5 µM	0.001 to 0.025 µM	0.001 to 0.025 µM	0.001 to 0.025 µM	0.001 to 0.025 µM	COc1cc(N2CCC(N3CCCN(C)CC3)CC2)c(Cl)cc1Nc1ncc(Br)c(Nc2cc(Cl)ccc2NS(C)(=O)=O)n1 [Example 95, N-(2-((5-bromo-2-((5-chloro-2-methoxy-4-(4-(4-methyl-1,4-diazepan-1-yl)piperidin-1-yl)phenyl)amino)pyrimidin-4-yl)amino)-4-chlorophenyl)methanesulfonamide]	0.5 to 2 µM
0.5 to 2 µM	0.025 to 0.1 µM	0.001 to 0.025 µM	0.025 to 0.1 µM	0.025 to 0.1 µM	Cc1cc(Nc2ncc(Br)c(Nc3cc(Cl)ccc3NS(C)(=O)=O)n2)c(Cl)cc1N1CCC(N2CCCN(C)CC2)CC1 [Example 97, N-(2-((5-bromo-2-((2-chloro-5-methyl-4-(4-(4-methyl-1,4-diazepan-1-yl)piperidin-1-yl)phenyl)amino)pyrimidin-4-yl)amino)-4-chlorophenyl)methanesulfonamide]	0.5 to 2 µM
0.1 to 0.5 µM	0.025 to 0.1 µM	0.025 to 0.1 µM	0.025 to 0.1 µM	0.1 to 0.5 µM	Cc1cc(Nc2ncc(Br)c(Nc3cc(Cl)ccc3NS(C)(=O)=O)n2)c(Cl)cc1N1CCC(N2CCCC(N(C)C)C2)CC1 (stereo not drawn) [Example 98, N-(2-((5-bromo-2-((2-chloro-4-(3-(dimethylamino)-[1,4′-bipiperidin]-1′-yl)-5-methylphenyl)amino)pyrimidin-4-yl)amino)-4-chlorophenyl)methanesulfonamide]	0.5 to 2 µM
0.1 to 0.5 µM	0.001 to 0.025 µM	0.001 to 0.025 µM	0.1 to 0.5 µM	0.025 to 0.1 µM	COc1cc(N2CCC(N3CCN(C)CC3)CC2)c(C)cc1Nc1ncc(Cl)c(Nc2ccc3ncccc3c2NS(C)(=O)=O)n1 [Example 115, N-(6-((5-chloro-2-((2-methoxy-5-methyl-4-(4-(4-methylpiperazin-1-yl)piperidin-1-yl)phenyl)amino)pyrimidin-4-yl)amino)quinolin-5-yl)methanesulfonamide]	2 to 10 µM
0.1 to 0.5 µM	0.025 to 0.1 µM	0.001 to 0.025 µM	0.001 to 0.025 µM	0.025 to 0.1 µM	COc1cc(N2CCC(N3CCN(C)CC3)CC2)c(C)cc1Nc1ncc(Cl)c(Nc2ccc3nccnc3c2NS(C)(=O)=O)n1 [Example 131, N-(6-((5-chloro-2-((2-methoxy-5-methyl-4-(4-(4-methylpiperazin-1-yl)piperidin-1-yl)phenyl)amino)pyrimidin-4-yl)amino)quinoxalin-5-yl)methanesulfonamide]	0.5 to 2 µM
0.1 to 0.5 µM	0.025 to 0.1 µM	0.025 to 0.1 µM	0.1 to 0.5 µM	0.1 to 0.5 µM	COc1nc(N2CCC(N3CCN(C)CC3)CC2)c(C)cc1Nc1ncc(Cl)c(Nc2ccc3nccnc3c2NS(C)(=O)=O)n1 [Example 134, N-(6-((5-chloro-2-((2-methoxy-5-methyl-6-(4-(4-methylpiperazin-1-yl)piperidin-1-yl)pyridin-3-yl)amino)pyrimidin-4-yl)amino)quinoxalin-5-yl)methanesulfonamide]	0.1 to 0.5 µM
0.1 to 0.5 µM	0.025 to 0.1 µM	0.001 to 0.025 µM	0.001 to 0.025 µM	0.025 to 0.1 µM	COc1cc(N2CCC(N3CCN(C)CC3)CC2)c(C)cc1Nc1ncc(Cl)c(Nc2cc3c(cc2NS(C)(=O)=O)CCO3)n1 [Example 140, N-(6-((5-chloro-2-((2-methoxy-5-methyl-4-(4-(4-methylpiperazin-1-yl)piperidin-1-yl)phenyl)amino)pyrimidin-4-yl)amino)-2,3-dihydrobenzofuran-5-yl)methanesulfonamide]	0.5 to 2 µM
0.5 to 2 µM	0.1 to 0.5 µM	0.025 to 0.1 µM	0.5 to 2 µM	0.5 to 2 µM	COc1cc(N2CCC(N3CCN(C)CC3)CC2)c(C)cc1Nc1ncc(Br)c(Nc2ccccc2N=S(C)(C)=O)n1 [Example 142]	0.5 to 2 µM
0.1 to 0.5 µM	0.1 to 0.5 µM	0.1 to 0.5 µM	0.5 to 2 µM	0.5 to 2 µM	COc1cc(N2CCC(N3CCN(C)CC3)CC2)c(Cl)cc1Nc1ncc(Br)c(Nc2ccccc2N=S(C)(C)=O)n1 [Example 143]	0.1 to 0.5 µM
0.5 to 2 µM	0.5 to 2 µM	0.1 to 0.5 µM	0.5 to 2 µM	0.1 to 0.5 µM	Cc1cc(Nc2ncc(Br)c(Nc3ccccc3N=S(C)(C)=O)n2)c(Cl)cc1N1CCC(N2CCN(C)CC2)CC1 [Example 144]	0.5 to 2 µM
0.5 to 2 µM	0.1 to 0.5 µM	0.1 to 0.5 µM	0.1 to 0.5 µM	0.5 to 2 µM	COc1cc(N2CCC(N3CCC(C(F)(F)F)CC3)CC2)c(C)cc1Nc1ncc(Br)c(Nc2ccc(F)cc2NS(C)(=O)=O)n1 [Example 148, N-(2-((5-bromo-2-((2-methoxy-5-methyl-4-(4-(trifluoromethyl)-[1,4′-bipiperidin]-1′-yl)phenyl)amino)pyrimidin-4-yl)amino)-5-fluorophenyl)methanesulfonamide]	0.5 to 2 µM
0.1 to 0.5 µM	0.1 to 0.5 µM	0.025 to 0.1 µM	0.1 to 0.5 µM	0.1 to 0.5 µM	COc1cc(N2CCC(N3CCCC(N(C)C)C3)CC2)c(Cl)cc1Nc1ncc(Br)c(Nc2ccc(F)cc2NS(C)(=O)=O)n1 (stereo not drawn) [Example 149, N-(2-((5-bromo-2-((5-chloro-4-(3-(dimethylamino)-[1,4′-bipiperidin]-1′-yl)-2-methoxyphenyl)amino)pyrimidin-4-yl)amino)-5-fluorophenyl)methanesulfonamide]	0.1 to 0.5 µM
0.1 to 0.5 µM	0.001 to 0.025 µM	0.001 to 0.025 µM	0.001 to 0.025 µM	0.001 to 0.025 µM	COc1cc(N2CCC(N3CCN(C)CC3)CC2)c(C)cc1Nc1nnc(Cl)c(Nc2cc(Cl)ccc2NS(C)(=O)=O)n1 [Example 152, N-(4-chloro-2-((6-chloro-3-((-2-methoxy-5-methyl-4-(4-(4-methylpiperazin-1-yl)piperidin-1-yl)phenyl)amino)-1,2,4-triazin-5-yl)amino)phenyl)methanesulfonamide]	0.5 to 2 µM
